Columns and labels:
[1] = molecular target: angiotensin II binding to rat adrenal receptor preparations; test: inhibition of 125I-angiotensin II binding to rat adrenal receptor preparations
[2] = test system: 2 kidney, 1-clip Goldblatt hypertensive rat (RHR); test: blood pressure lowering in conscious 2 kidney, 1-clip Goldblatt (renal) hypertensive rats (RHR), AHP3; assay type: in vivo; conditions: 30 mg/kg ip, read-out: Max % decrease in blood pressure, 30 mg/kg ip in RHR
Experimental: Thus, for example, compounds of formula I when administered intraperitoneally or orally to 2 kidney, 1-clip Goldblatt (renal) hypertensive rats (See S Sen, et al., "Role of Renin-Angiotensin System in Chronic Renal Hypertensive Rats," Hypertension 1:427-434 (1979) and Clin. Soc. 57:53-62, 1979, "Antihypertensive Effect of Prolonged Blockade of Angiotensin Formation in Benign and Malignant, one-and two-kidney Goldblatt Hypertensive Rats".) at doses in the range of 1-100 mg/kg cause 10-80 mmHg drops in blood pressure. […] Angiotensin binding inhibition activity and blood pressure lowering activity in renal hypertensive rats of the optimally substituted examples of formula I are listed in Table 1. Blood pressure lowering activity in spontaneously hypertensive rats of optimally substituted examples of formula II are listed in Table 2.
[…] EVALUATION (AHP3)
A Method for the Direct Monitoring of Aortic Blood Pressure and Heart Rate from Conscious Rats
The continuous monitoring of pulsatile blood pressure (BP) from unrestrained conscious rats surgically equipped with polyethylene cannulas was accomplished by means of a computer assisted data capture scheme (CADCS). The basic elements of the methodology are the cannulation procedure and the CADCS.
Rats were anesthetized with Telazol (1:1 tiletamine HCl and zolazepam HCl); 20-40 mg/kg IM and the descending aorta exposed via a midline incision. Cannulas fabricated from polyethylene tubing were inserted into the aorta via an undersized puncture hole below the renal arteries. The puncture hole was made by a 23 G disposable needle with a section of the aorta clamped off above and below the puncture site. The cannulas, consisting of a PE100 (0.86 mm ID) body and a PE50 (0.58 mm ID) tip, were attached to a trocar, inserted through the psoas muscle, and passed subcutaneously along the midline of the back and externalized between the ears. The cannulas were anchored to the psoas muscle and between the scalulae (3-0 green braided suture). The midline incision was closed in two steps (muscle first, skin second) using continuous over-and-over sutures (4-0 chronic). Each rat was then given penicillin 30,000 units subcutaneously (Penicillin G Procaine Sterile Suspension).
The rats were fitted with a harness-springswivel assembly designed to protect the cannula and to provide the rat relative freedom of movement. The harnesses were fabricated from nylon hook and loop tape cemented to a metal plate to which spring wires (18-8 stainless steel), were attached to brass swivels. Each polyethylene cannula was channeled through a spring and connected through a swivel to a pressure transducer (Model P23Gb; Statham Instruments; Hato Rey, Puerto Rico) and an infusion pump (Sage model 234-7; Orion Research, Cambridge, Mass.) by means of PE100 tubing. While on test, each rat received a continuous slow infusion of heparinized saline solution (approximately 0.40 ml or 40 units of heparin per 24 hr period) to prevent clot formation. Additional "flushes" of the cannula with heparinized saline were carried out when the aortic pulse pressure (systolic minus diastolic) was less than 25 mm Hg.
The pulsatile blood pressure of each of 32 rats was monitored continuously by two signal conditioning units (Gould, Clev., Ohio). The signals from these units were monitored and digital data for mean, systolic, and diastolic blood pressures as well as for heart rate were calculated every 5 min by two in-laboratory computers (Hewlett Packard, Cupertino, Calif.). These in-laboratory computers have the capacity to store 32 days of this 5 min data. Communication with the mainframe research computer (IBM 3083) from the two inlaboratory computers allowed for data analysis and report generation. […]

Row | IC50 [1] | Compound | change in vivo at 30 mg/kg [2]
1 | 0.07 µM | COc1ccc(Cn2cnc3c2CC(C(=O)O)N(C(=O)C(c2ccccc2)c2ccccc2)C3)cc1C (centres unmarked) [Example 19, 1-(3-Methyl-4-methoxyphenyl)methyl-5-diphenylacetyl-4,5,6,7-tetrahydro-1H-imidazo[4,5-c]-pyridine-6-carboxylic acid] | -14%
2 | 6.8 µM | O=C(O)[C@@H]1Cc2c(ncn2Cc2ccccc2)CN1C(=O)C(c1ccc(Cl)cc1)c1ccc(Cl)cc1 [Example 22, (S)-5-[bis(4-chlorophenyl)acetyl]-4,5,6,7-tetrahydro-1-(phenylmethyl)-1H-imidazo[4,5-c]pyridine-6-carboxylic acid] | -27%
3 | 2 µM | COc1ccc(Cn2cnc3c2C[C@@H](C(=O)O)N(C(=O)CC2CCCCC2)C3)cc1C [Example 26, (S)-5-(cyclohexylacetyl)-4,5,6,7-tetrahydro-1-[(4-methoxy-3-methylphenyl)methyl]-1H-imidazo-[4,5-c]-pyridine-6-carboxylic acid] | -18%
4 | 0.24 µM | O=C(O)C1Cc2c(ncn2CCC2CCCCC2)CN1C(=O)C(c1ccccc1)c1ccccc1 (centres unmarked) [Example 4, 1-(2-Cyclohexylethyl)-5-diphenylacetyl-4,5,6,7-tetrahydro-1H-imidazo[4,5-c]pyridine-6-carboxylic acid] | -13%
